Columns and labels:
[1] = target: T1, human histamine H3 receptor (Homo sapiens, UniProt Q9Y5N1); assay: H3 cell based functional assay (cAMP, β-lactamase reporter gene)
T1 construct: expressed in transfected cells; host or cells: HEK-293 cells expressing a CRE beta-lactamase reporter gene
Procedure: The compound was evaluated using a cell based functional assay measuring cAMP through β-lactamase reporter gene activity. A stable cell line was generated from HEK-293 cells expressing a CRE β-lactamase reporter gene and transfected with human histamine H3 receptor cDNA. Cells were seeded at a density of 500,000 cells/ml, and grown overnight in MEM (Invitrogen) supplemented with 1% dialysed FBS (Sigma), 2 mM glutamine (Sigma), 1 mM sodium pyruvate (Sigma), 0.1 mM non essential amino acids (Invitrogen) and 25 mM HEPES (Sigma) in poly D lysine coated 384 well plates (BD Biosciences). […] For IC50 determination, the test compound was prepared in PBS (Sigma) and DMSO (Sigma) at a dose response of 5×10^−10 to 5×10^−5 M with a final DMSO concentration in the assay of 0.5%. Cells were incubated for 15 minutes plus/minus compound and their ability to permit 10 μM forskolin-stimulated cAMP synthesis in the presence of 1 nM imetit was measured as described above.

[2] = target: T2, hERG channel (Homo sapiens, UniProt Q12809); assay: hERG patch clamp assay; type: cell-based; conditions: HEK293 cells stably expressing hERG; whole-cell patch clamp, 26.5-28.5° C.
T2 construct: expressed in transfected cells
T2 sequence (Q12809 whole entry): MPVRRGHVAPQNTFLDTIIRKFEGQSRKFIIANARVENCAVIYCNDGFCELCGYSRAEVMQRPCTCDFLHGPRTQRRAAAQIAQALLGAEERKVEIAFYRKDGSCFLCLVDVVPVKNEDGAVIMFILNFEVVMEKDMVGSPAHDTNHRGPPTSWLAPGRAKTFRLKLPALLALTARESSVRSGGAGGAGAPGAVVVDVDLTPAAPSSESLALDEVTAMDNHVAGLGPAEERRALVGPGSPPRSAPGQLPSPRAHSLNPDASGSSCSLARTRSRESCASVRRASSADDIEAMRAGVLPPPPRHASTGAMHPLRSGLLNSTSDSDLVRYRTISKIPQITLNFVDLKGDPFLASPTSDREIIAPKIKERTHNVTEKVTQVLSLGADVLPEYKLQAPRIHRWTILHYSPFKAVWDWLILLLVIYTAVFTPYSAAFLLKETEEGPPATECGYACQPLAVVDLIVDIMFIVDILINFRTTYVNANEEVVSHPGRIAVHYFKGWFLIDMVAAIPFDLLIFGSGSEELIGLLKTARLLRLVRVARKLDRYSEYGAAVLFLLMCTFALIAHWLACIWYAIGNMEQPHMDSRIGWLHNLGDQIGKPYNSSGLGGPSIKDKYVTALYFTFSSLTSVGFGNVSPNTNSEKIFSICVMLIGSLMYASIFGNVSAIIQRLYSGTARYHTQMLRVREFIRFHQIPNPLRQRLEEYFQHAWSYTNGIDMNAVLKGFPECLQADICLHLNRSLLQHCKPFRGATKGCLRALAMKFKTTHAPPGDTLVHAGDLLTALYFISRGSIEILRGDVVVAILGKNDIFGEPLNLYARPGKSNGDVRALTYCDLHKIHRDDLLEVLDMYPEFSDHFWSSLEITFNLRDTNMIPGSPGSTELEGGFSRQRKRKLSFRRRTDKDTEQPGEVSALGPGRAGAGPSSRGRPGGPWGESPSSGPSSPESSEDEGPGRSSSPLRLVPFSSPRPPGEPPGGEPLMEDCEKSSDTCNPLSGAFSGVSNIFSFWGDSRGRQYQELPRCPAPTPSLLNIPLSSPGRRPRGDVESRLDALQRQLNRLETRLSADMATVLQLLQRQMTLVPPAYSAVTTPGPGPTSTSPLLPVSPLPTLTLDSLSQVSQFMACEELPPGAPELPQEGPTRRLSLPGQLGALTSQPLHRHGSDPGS
Procedure: To determine the potential of compounds to inhibit the hERG channel, the cloned counterpart of the […] delayed rectifier potassium current (IKr), HEK293 cells stably expressing the hERG channel were used in whole-cell patch clamp electrophysiology studies at ambient temperature (26.5-28.5° C.). The methodology for stable transfection of this channel in HEK293 cells can be found elsewhere (Zhou et al 1998, Biophysical Journal, 74, pp 230-241). The solutions used for experimentation were standard extracellular solution of the following composition (mM); NaCl, 137; KCl, 4; CaCl2, 1.8; MgCl2, 1; Glucose, 10; HEPES, 10; pH 7.4±0.05 with NaOH/HCl; and standard intracellular solution of the following composition (mM); KCl 130; MgCl2, 1; HEPES, 10; EGTA, 5; MgATP, 5; pH 7.2±0.05 with KOH. The voltage protocol applied was designed to activate the hERG channel and allow the measurement of drug block of the channel and is as follows. First the membrane potential was stepped from a holding potential of −80 mV to +30 mV for 1s. This was followed by a descending voltage ramp at a rate of 0.5 mV/ms back to holding potential of −80 mV and the peak outward current observed during the repolarizing ramp was measured. This protocol was evoked repeatedly every 4 seconds (0.25 Hz). […]

T1 sequence (Q9Y5N1 whole entry): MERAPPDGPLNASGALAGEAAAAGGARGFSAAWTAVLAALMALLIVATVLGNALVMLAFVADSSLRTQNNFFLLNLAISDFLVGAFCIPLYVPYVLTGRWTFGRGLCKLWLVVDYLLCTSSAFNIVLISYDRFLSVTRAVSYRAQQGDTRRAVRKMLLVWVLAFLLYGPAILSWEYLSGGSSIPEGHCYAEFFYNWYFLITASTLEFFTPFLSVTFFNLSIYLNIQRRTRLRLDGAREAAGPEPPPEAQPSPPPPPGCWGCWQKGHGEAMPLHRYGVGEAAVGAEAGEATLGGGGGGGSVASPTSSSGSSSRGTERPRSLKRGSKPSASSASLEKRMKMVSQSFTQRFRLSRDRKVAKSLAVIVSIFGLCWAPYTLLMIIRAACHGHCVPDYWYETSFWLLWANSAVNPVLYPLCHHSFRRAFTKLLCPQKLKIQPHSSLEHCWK

SMILES | Ki ([1]; HEK-293 CRE β-lactamase cells, antagonism of 1 nM imetit, 10 μM forskolin, Ki calculated from IC50 by the Cheng-Prussoff equation) [nM] | IC50 [2] [nM] | EC50 [1] [nM]
CC(C)N1CCC(Oc2ccc3c(n2)CCN(c2ccc(C(N)=O)cn2)C3)CC1 [Example 1, 6-[2-(1-Isopropyl-piperidin-4-yloxy)-7,8-dihydro-5H-[1,6]naphthyridin-6-yl]-nicotinamide] | 2.6 | 22200 | –
N=C(N)SCCc1cnc[nH]1 [imetit, reference compound] | – | – | 0.35

From patent US20070179175A1, “Tetrahydronaphthyridine Derivative” (priority 2005, published 2007)
